We go through four molecules from US12492163B2, “9H-fluorene derivatives or their pharmaceutically acceptable salts” (priority 2020, dated 2025).

Test [1] has as its target Recombinant human Aβ1-42 peptide (Homo sapiens (Human), UniProt P05067). Description: Thioflavin T test, antiaggregation activity against beta-amyloid. It counts as biochemical. To be noted: 10 μM test compound, 1.5 μM Aβ1-42; read-out: inh. Aβ aggr. % inh. The protocol:
The thioflavin T test [Levine III] was used for the determinations. Recombinant human Aβ1-42 peptide (HFIP pretreated, Merck Millipore, Darmstadt, Germany) was dissolved in DMSO to form a 75 μM stock solution. The solution was further diluted in HEPES buffer (150 mM HEPES, pH 7.4, 150 mM NaCl) to a concentration of 7.5 μM. Then, the Aβ1-42 solution was added to the test compounds (black 96-well plates were used) and diluted with thioflavin T solution (10 μM final concentration). The final mixture contained 1.5 μM Aβ1-42, 10 μM test compound, and 3% of DMSO. Fluorescence was measured every 300 s (excitation wavelength was 440 nm, emission wavelength was 490 nm) with continuous mixing between measurements. A multifunction microplate reader (Synergy H4; BioTek Instruments, Inc., Winooski, VT, USA) was used to measure the fluorescence. Fluorescence started increasing after approximately 4 hours, plateaued after 20 hours and remained virtually unchanged for the next 28 hours of incubation. The plateau-phase fluorescence intensities (in the presence and absence of test compounds) were averaged and the mean fluorescence values for the respective wells at t=0 h were subtracted from them. […] IC50 values were calculated using non-linear regression (GraphPad Prism 5 [GraphPad Software, San Diego, CA, USA 5.00]) for the percentage of aggregation inhibition against the inhibitor concentration used.

In test [2] the target is human recombinant beta-secretase (hBACE1) (Homo sapiens (Human), UniProt P56817). Description: FRET assay, inhibition of human recombinant beta-secretase. To be noted: for inhibition at 50 µM: 50 μM inhibitor concentration, read-out: hBACE-1 % inh; for IC50: read-out: hBACE-1 IC50. It counts as biochemical. The protocol:
The FRET assay [Vassar, et al.] was used to test activity using 384-well black plates and a microplate reader (EnSpire Multimode; PerkinElmer; Waltham, MA, USA). The test was purchased from Life Technologies Polska Sp. z o.o. (Warsaw, Poland). […] Stock solutions of test compounds were prepared in DMSO and then further diluted with assay buffer (50 mM sodium acetate; pH 4.5) to the appropriate concentrations in the wells. In the first step of the test, 10 μl of the substrate (Rh-[…] quencher, based on the so-called Swedish APP mutation) was mixed with 10 μl of the test compound (or assay buffer; for blank sample). The enzyme reaction was initiated by adding 10 μl of enzyme (hBACE1, 1 U/ml). The reaction mixture was incubated at 25° C. for 60 minutes, then 10 μL of Stop solution (2.5 M sodium acetate) was added. After stopping the reaction, fluorescence was measured at 576 nm. The percentage of enzyme inhibition was calculated from the formula [1−(S60−S0)/(C60−C0)]×100, where S0 and S60 are the fluorescence of the test sample (containing the enzyme, substrate and test compound) at the start of the reaction and after 60 minutes, respectively, whereas C0 and C60 were analogous fluorescence intensities in the blank samples (containing enzyme, substrate and buffer). All test compounds were tested at a concentration of 50 μM in triplicate. […] A BACE1 IV inhibitor (Calbiochem, Merck; Nottingham, UK) [Stachel et al.] was used as a reference compound. […] IC50 values for all test compounds were calculated using non-linear regression (GraphPad Prism 5 [GraphPad Software, San Diego, CA, USA 5.00]) for the percentage of enzyme inhibition against the inhibitor concentration used.

The next test concerns the target mGAT3 (Mus musculus (Mouse), UniProt P31649). Briefly: [3H]GABA uptake inhibition, mGAT3 in HEK293 cells. The test is classed as cell-based. To be noted: for percentage of [3H]GABA reuptake retained, mGAT3: inhibitor at 100 μM, remaining reuptake; for pIC50 (+/−SEM) mGAT3: GABA reuptake. The protocol: (§1) Exemplary compounds according to the invention were screened at the Ludwig-Maximilian University of Munich to determine the inhibitory ability towards four mouse GAT transporters (mGAT1-mGAT4). […] The biological material was stably transfected human embryonic kidney HEK293 cells, expressing genes to the appropriate transporters. The generated radioactivity was measured with a liquid scintillation counter. […] These determinations were made according to the procedure described in detail in A. Kragler, G. Höfner, K. T. Wanner, Novel parent structures for inhibitors of the murine GABA transporters mGAT3 and mGAT4, Eur. J. Pharmacol. 519 (2005) 43-47.

For another test, the target named is mGAT4 (Mus musculus (Mouse), UniProt P31650). Description: [3H]GABA uptake inhibition, mGAT4 in HEK293 cells. The test is classed as cell-based. To be noted: for percentage of [3H]GABA reuptake retained, mGAT4: inhibitor at 100 μM, remaining reuptake; for IC50: GABA reuptake, read-out: pIC50 (+/−SEM) mGAT4 (converted). The protocol:
as §1

Another test addresses mGAT1 (Mus musculus (Mouse), UniProt P31648). Briefly: [3H]GABA uptake inhibition, mGAT1 in HEK293 cells. The test is classed as cell-based. To be noted: for pIC50 (+/−SEM) mGAT1: GABA reuptake. The protocol:
as §1

In test [3] the target is human plasma butyrylcholinesterase (hBuChE) (Homo sapiens (Human), UniProt P06276). Briefly: Ellman's test, inhibition of human plasma butyrylcholinesterase. It counts as biochemical. The protocol: (§2) The spectrophotometric Ellman's test [Ellman et al.] modified for assays in 96-well plates was used to test the activity. Reagents: 5,5′-dithiobis-(2-nitrobenzoic acid) (DTNB), eqBuChE and butyrylthiocholine iodide (BTC) were purchased from Sigma-Aldrich (Steinheim, Germany). hBuChE was from Vivonics (Bedford, MA, USA). The enzymes were prepared by dissolving in demineralized water to a concentration of 0.384 U/ml. Stock solutions of test compounds were prepared by dissolving in DMSO to a concentration of 0.0034 M. They were then diluted with water to obtain the appropriate concentrations in the wells. In the first step of the test, 25 μl of test compound (or DMSO/water mixture at the appropriate ratio for blank samples) was incubated in 0.1 M phosphate buffer (200 μl, pH=8.0) with DTNB (20 μl; 0.0025M) and with the appropriate enzyme (20 μl; eqBuChE or hBuChE) at 25° C. (animal enzyme) or 36° C. (human enzyme). After a 5 minutes incubation period, 20 μl of BTC solution (0.00375 M) was added. After another 5 minutes, the changes in absorbance of the solutions were measured at 412 nm using a multifunctional microplate reader (EnSpire Multimode; PerkinElmer; Waltham, MA, USA). All compounds were tested at a screening concentration of 10 μM (eqBuChE) or 1 μM (hBuChE). The percentage of enzyme inhibition was calculated from the equation 100-(S/B)×100, where S and B were the enzymatic activity in the test sample well and in the well without sample, respectively. […] All reactions were performed in triplicate. IC50 values were calculated using non-linear regression (GraphPad Prism 5 [GraphPad Software, San Diego, CA, USA 5.00]) for the percentage of enzyme inhibition against the inhibitor concentration used. Tacrine and donepezil were used as reference compounds.
human plasma butyrylcholinesterase (hBuChE), sequence (P06276 29-602): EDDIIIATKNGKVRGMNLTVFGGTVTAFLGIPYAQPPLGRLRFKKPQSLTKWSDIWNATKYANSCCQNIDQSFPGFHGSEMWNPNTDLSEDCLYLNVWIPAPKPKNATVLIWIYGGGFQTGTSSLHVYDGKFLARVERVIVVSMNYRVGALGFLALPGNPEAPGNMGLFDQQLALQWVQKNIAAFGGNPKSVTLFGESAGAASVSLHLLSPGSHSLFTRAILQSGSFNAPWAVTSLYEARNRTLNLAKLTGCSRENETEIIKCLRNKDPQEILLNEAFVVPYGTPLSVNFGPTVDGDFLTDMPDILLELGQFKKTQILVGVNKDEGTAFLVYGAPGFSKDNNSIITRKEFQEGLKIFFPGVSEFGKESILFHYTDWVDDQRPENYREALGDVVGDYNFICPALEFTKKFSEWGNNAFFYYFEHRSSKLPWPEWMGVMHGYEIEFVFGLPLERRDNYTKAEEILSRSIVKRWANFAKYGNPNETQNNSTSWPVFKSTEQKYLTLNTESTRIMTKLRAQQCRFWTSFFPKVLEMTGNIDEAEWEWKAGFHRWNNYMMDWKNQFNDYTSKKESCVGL
For orientation: In Ellman's method for cholinesterases, released thiocholine reacts with DTNB.

The next test deals with mGAT2 (Mus musculus (Mouse), UniProt P31651). Description: [3H]GABA uptake inhibition, mGAT2 in HEK293 cells. It counts as cell-based. To be noted: for percentage of [3H]GABA reuptake retained, mGAT2: inhibitor at 100 μM, remaining reuptake. The protocol: as §1
mGAT2, sequence (P31651 whole entry): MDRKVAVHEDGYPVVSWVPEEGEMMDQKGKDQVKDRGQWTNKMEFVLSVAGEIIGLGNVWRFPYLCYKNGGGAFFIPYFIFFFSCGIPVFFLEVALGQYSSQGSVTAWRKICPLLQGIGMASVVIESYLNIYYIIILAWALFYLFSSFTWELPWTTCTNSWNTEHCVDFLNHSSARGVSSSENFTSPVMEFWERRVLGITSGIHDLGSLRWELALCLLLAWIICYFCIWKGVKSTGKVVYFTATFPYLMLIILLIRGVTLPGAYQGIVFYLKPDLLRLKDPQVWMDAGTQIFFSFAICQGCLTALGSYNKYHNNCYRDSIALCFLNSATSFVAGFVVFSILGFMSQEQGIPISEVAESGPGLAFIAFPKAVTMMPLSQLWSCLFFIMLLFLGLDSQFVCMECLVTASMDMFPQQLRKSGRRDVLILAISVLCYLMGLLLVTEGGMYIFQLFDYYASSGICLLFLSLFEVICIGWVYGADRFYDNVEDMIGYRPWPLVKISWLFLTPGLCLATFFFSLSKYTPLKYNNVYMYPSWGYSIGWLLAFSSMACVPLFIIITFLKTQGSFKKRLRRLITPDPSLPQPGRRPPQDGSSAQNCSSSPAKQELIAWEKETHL
Test [4] deals with horse plasma butyrylcholinesterase (eqBuChE) (Equus caballus (Horse), UniProt P81908). Briefly: Ellman's test, inhibition of horse plasma butyrylcholinesterase. It counts as biochemical. The protocol: as §2
horse plasma butyrylcholinesterase (eqBuChE), sequence (P81908 whole entry): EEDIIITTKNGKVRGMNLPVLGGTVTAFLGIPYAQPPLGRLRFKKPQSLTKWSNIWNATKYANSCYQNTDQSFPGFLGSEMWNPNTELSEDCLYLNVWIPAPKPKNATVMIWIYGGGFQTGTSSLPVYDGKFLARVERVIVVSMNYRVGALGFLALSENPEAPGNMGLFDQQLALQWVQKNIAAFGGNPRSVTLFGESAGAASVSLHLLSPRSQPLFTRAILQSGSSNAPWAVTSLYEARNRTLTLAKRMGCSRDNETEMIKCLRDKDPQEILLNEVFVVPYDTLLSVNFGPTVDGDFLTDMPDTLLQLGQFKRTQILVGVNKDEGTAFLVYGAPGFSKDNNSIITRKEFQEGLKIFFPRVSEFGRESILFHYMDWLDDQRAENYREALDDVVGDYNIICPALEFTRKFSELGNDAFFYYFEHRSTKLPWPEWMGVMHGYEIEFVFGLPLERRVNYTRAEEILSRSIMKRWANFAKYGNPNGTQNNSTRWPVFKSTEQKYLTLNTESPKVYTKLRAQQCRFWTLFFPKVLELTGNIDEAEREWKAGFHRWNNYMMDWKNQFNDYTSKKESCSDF

mGAT4, sequence (P31650 whole entry): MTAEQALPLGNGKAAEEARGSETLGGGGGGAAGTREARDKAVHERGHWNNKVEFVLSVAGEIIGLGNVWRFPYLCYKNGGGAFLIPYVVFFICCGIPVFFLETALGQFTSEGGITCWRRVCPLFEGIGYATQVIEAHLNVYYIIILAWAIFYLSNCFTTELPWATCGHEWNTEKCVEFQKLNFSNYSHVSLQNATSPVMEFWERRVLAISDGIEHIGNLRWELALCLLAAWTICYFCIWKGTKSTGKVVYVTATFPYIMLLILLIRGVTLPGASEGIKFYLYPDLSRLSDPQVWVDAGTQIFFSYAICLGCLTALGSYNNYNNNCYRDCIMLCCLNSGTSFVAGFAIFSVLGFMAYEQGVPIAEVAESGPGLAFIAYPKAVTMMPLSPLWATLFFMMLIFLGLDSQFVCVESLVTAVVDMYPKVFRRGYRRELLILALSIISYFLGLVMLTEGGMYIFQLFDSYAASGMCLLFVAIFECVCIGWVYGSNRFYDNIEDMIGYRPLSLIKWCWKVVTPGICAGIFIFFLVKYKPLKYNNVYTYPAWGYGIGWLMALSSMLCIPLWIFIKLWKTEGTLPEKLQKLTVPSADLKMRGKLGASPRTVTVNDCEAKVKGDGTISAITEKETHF
human recombinant beta-secretase (hBACE1), sequence (P56817 46-501): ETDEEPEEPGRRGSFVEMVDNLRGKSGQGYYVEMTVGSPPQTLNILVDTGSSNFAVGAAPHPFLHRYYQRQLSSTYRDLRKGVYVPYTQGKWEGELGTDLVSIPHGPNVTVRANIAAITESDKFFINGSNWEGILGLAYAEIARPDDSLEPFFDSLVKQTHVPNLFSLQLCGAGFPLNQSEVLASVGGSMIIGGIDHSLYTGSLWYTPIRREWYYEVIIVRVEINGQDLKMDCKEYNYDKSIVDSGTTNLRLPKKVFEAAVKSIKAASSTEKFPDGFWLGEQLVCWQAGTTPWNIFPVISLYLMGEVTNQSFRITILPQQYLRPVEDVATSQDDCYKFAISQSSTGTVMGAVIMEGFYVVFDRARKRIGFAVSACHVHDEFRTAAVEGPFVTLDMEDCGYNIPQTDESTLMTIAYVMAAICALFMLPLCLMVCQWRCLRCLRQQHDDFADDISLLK
mGAT3, sequence (P31649 whole entry): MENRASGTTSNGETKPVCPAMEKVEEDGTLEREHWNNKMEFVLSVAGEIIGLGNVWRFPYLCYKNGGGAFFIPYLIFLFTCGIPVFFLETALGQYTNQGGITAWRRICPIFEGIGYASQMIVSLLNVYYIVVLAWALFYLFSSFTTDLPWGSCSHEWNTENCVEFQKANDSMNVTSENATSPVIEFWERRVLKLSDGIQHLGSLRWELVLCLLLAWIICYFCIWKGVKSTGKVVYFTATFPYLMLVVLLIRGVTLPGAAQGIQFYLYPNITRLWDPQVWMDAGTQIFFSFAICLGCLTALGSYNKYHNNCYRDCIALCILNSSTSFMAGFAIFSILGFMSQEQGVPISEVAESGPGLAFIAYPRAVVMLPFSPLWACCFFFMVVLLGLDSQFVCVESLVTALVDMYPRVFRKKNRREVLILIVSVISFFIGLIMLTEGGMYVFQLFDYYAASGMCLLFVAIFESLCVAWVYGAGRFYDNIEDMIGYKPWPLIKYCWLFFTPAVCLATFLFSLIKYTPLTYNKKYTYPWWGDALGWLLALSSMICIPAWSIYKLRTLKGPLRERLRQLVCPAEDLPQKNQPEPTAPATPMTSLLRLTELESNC
Recombinant human Aβ1-42 peptide, sequence (P05067 672-713): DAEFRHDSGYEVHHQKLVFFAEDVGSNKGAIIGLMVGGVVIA

Regarding `C[C@H](NC[C@@H](O)[C@H](Cc1ccccc1)NC(=O)C1c2ccccc2-c2ccccc21)c1ccccc1` [Compound 22, N-((2S,3R)-3-hydroxy-1-phenyl-4-(((S)-1-phenylethyl)amino)butan-2-yl)-9H-fluorene-9-carboxamide], the inhibition at 10 µM in test [1] is < 10%; in test [4] (10 μM inhibitor concentration, read-out: eqBuChE percent inhibition of enzyme), 42%. Besides, the inhibition at 50 µM in test [2] turned out to be 72.6%. Besides, on mGAT3, the “percentage of [3H]GABA reuptake retained, mGAT3” value stood at 90%. Also, the “percentage of [3H]GABA reuptake retained, mGAT4” value at mGAT4 turned out to be 69%. On mGAT1 (inhibitor at 100 μM, remaining reuptake), the “percentage of [3H]GABA reuptake retained, mGAT1” value was 83%. For the same molecule, the inhibition at 1 µM in test [3] (1 μM inhibitor concentration, read-out: hBuChE % inh) is < 10%. Further, at mGAT2, the “percentage of [3H]GABA reuptake retained, mGAT2” value (“percentage … mGAT2” for short) amounted to 97%.

In the case of `C[C@H](NC[C@@H](O)[C@H](Cc1ccccc1)NC(=O)CC1c2ccccc2-c2ccccc21)c1ccccc1` [Compound 23, 2-(9H-fluoren-9-yl)-N-((2S,3R)-3-hydroxy-1-phenyl-4-(((S)-1-phenylethyl)amino)butan-2-yl)acetamide], in test [1], the inhibition at 10 µM stood at 59.4%. Also, the IC50 in test [2] is 7.36 µM; in test [3], 558 nM; at mGAT2 (GABA reuptake, read-out: pIC50 (+/−SEM) mGAT2 (converted)), 14.5 µM; in test [4] it was 8860 nM. Also, on mGAT3, the “percentage of [3H]GABA reuptake retained, mGAT3” value was determined as 59%. The “percentage of [3H]GABA reuptake retained, mGAT4” value at mGAT4 is 61%. For the same molecule, the “pIC50 (+/−SEM) mGAT1” value on mGAT1 amounted to 4.73.

Take `CC(C)(C)CNC[C@@H](O)[C@H](Cc1ccccc1)NC(=O)CC1c2ccccc2-c2ccccc21` [Compound 27, 2-(9H-fluoren-9-yl)-N-((2S,3R)-3-hydroxy-4-(neopentylamino)-1-phenylbutan-2-yl)acetamide]: the inhibition at 10 µM in test [1] came out at 53.5%. Moreover, the inhibition at 50 µM in test [2] came out at 52.4%. At mGAT3, the “pIC50 (+/−SEM) mGAT3” value amounted to 4.52. The IC50 at mGAT4 was 13.8 µM; in test [3], 207 nM; in test [4], 383 nM. Moreover, the “pIC50 (+/−SEM) mGAT1” value against mGAT1 was found to be 4.32. Besides, the “percentage … mGAT2” value on mGAT2 came to 52%.

`O=C(CC1c2ccccc2-c2ccccc21)N[C@@H](Cc1ccccc1)[C@H](O)CNCC1CC1` [Compound 28, N-((2S,3R)-4-((cyclopropylmethyl)amino)-3-hydroxy-1-phenylbutan-2-yl)-2-(9H-fluoren-9-yl)acetamide]: the inhibition at 10 µM in test [1] worked out at 73.4%. In addition, the IC50 in test [2] is 12.3 µM; at mGAT4 it was 12.6 µM; in test [3], 246 nM; in test [4], 1190 nM. Moreover, on mGAT3, the “pIC50 (+/−SEM) mGAT3” value was found to be 5.09. Further, the “pIC50 (+/−SEM) mGAT1” value on mGAT1 is recorded as 4.87. Also, the “percentage … mGAT2” value on mGAT2 is listed as 10%.
